14 molecules from patent publication US10919916B2, “Boron-containing small molecules” (Bill & Melinda Gates Foundation, priority 2016, dated 2021) can be followed below.

What all share (type): cell-based
Test [1] has as its system Staphylococcus aureus, MRSA (ATCC 33591). Briefly: Antibacterial MIC assay (microbroth dilution, CLSI). The settings on record: read-out: MIC Staphylococcus aureus, MRSA (ATCC 33591). The gist of the method:
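Microbroth dilution per CLSI M07-A10/M100-S25 in cation-adjusted Mueller-Hinton broth, with 3% lysed horse blood added for S. pneumoniae. Inoculum from a 0.5 McFarland direct colony suspension, diluted to 5×10^5 CFU/mL in the well. Compounds were 2-fold serially diluted; MIC read against a growth control.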
In general terms: In broth dilution the organism is exposed to a series of concentrations in liquid medium.

The test system of test [2] is Wolbachia pipientis in C6/36 cell line. The test is described as follows: Anti-Wolbachia high-content assay. The note with it: read-out: EC50 Wolbachia pipientis in C6/36 cell line. The method, then: After 15 minutes, all media was removed from each well and fresh media (no stain) was added. Imaging of each well was accomplished using a Perkin Elmer Operetta high-content imaging system. Five fields per well were imaged using a confocal 60× objective with the Fluorescein filter (excitation filter: 460-490 nm; emission filter: 500-550 nm). Images were analyzed using the Perkin Elmer Harmony software to score each intact cell on the basis of texture complexity of the cytoplasm. Full details can be found in: […]. et al, J. Biomol.

Test [3] relates to Streptococcus pneumoniae (ATCC 49619). Briefly: Antibacterial MIC assay (microbroth dilution, CLSI). A digest of the protocol: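 CLSI broth microdilution: 2-fold compound dilutions in cation-adjusted Mueller-Hinton broth supplemented with 3% lysed horse blood for S. pneumoniae, inoculum 5×10^5 CFU/mL from a 0.5 McFarland direct colony suspension, with growth control.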
[4] abbreviates: microbroth dilution, cation-adjusted Mueller-Hinton broth, 35° C. for 16-20 hours.
The mark [5] stands for this setting: C6/36 (wAlbB) cells, 7 days at 26° C., 50% reduction of Wolbachia.
Where [6] appears, read: ATCC49619, microbroth dilution, 3% lysed horse blood, 35° C. for 16-20 hours, read-out: MIC Streptococcus pneumoniae (ATCC 49619).

Structures are written as SMILES. Values after ≈ are worked out from the molar mass of the structure shown. Like-named read-outs stand apart in the source and are kept apart here.

For orientation: MIC means the smallest concentration in the dilution series that meets the test's criterion for growth inhibition. For the molecule `C=C[C@]1(C)C[C@@H](OC(=O)COc2ccc3c(c2F)B(O)OC3CNC(=O)OC(C)(C)C)[C@]2(C)[C@H](C)CC[C@]3(CCC(=O)[C@H]32)[C@@H](C)[C@@H]1O` (stereo partly drawn) [Compound 28, (3aR,4R,5R,7S,8S,9R,9aS,12R)-8-hydroxy-4,7,9,12-tetramethyl-3-oxo-7-vinyldecahydro-4,9a-propanocyclopenta[8]annulen-5-yl 2-((3-(((tert-butoxycarbonyl)amino)methyl)-7-fluoro-1-hydroxy-1,3-dihydrobenzo[c][1,2]oxaborol-6-yl)oxy)acetate], the MIC in test [1] (setting [4]) and in test [3] (setting [6]) was 0.5 to 2 µg/mL (≈ 0.76 to 3.04 µM) each time. Further, the EC50 in test [2] (setting [5]) is over 1000 nM.

Consider `C=C[C@]1(C)C[C@@H](OC(=O)COc2ccc3c(c2Cl)B(O)OC3CNC(=O)OC(C)(C)C)[C@]2(C)[C@H](C)CC[C@]3(CCC(=O)[C@H]32)[C@@H](C)[C@@H]1O` (stereo partly drawn) [Compound 30, (3aR,4R,5R,7S,8S,9R,9aS,12R)-8-hydroxy-4,7,9,12-tetramethyl-3-oxo-7-vinyldecahydro-4,9a-propanocyclopenta[8]annulen-5-yl 2-((3-(((tert-butoxycarbonyl)amino)methyl)-7-chloro-1-hydroxy-1,3-dihydrobenzo[c][1,2]oxaborol-6-yl)oxy)acetate], for which the MIC lay in the range of 0.5 to 2 µg/mL (≈ 0.742 to 2.97 µM) in test [1] and 4 to 32 µg/mL (≈ 5.93 to 47.5 µM) in test [3] (ATCC49619, read-out: MIC Streptococcus pneumoniae (ATCC 49619)). Besides, the EC50 in test [2] (C6/36, […]) was over 1000 nM.

As for `C=C[C@]1(C)C[C@@H](OC(=O)COc2ccc3c(c2)B(O)OC3)[C@]2(C)[C@H](C)CC[C@]3(C[C@H](O)C(=O)[C@H]32)[C@@H](C)[C@@H]1O` [Compound 35, (2S,3aR,4R,5R,7S,8S,9R,9aS,12R)-2,8-dihydroxy-4,7,9,12-tetramethyl-3-oxo-7-vinyldecahydro-4,9a-propanocyclopenta[8]annulen-5-yl 2-((1-hydroxy-1,3-dihydrobenzo[c][1,2]oxaborol-6-yl)oxy)acetate], the minimal inhibitory concentration (MIC) in test [1] (setting [4]) is under 0.25 µg/mL; in test [3] (setting [6]) it was 0.5 to 2 µg/mL (≈ 0.95 to 3.8 µM). In test [2] (setting [5]), the EC50 was found to be 30 nM.

Turning to `C=C[C@]1(C)C[C@@H](OC(=O)COc2ccc3c(c2F)B(O)OC3)[C@]2(C)[C@H](C)CC[C@]3(C[C@H](O)C(=O)[C@H]32)[C@@H](C)[C@@H]1O` [Compound 36, (2S,3aR,4R,5R,7S,8S,9R,9aS,12R)-2,8-dihydroxy-4,7,9,12-tetramethyl-3-oxo-7-vinyldecahydro-4,9a-propanocyclopenta[8]annulen-5-yl 2-((7-fluoro-1-hydroxy-1,3-dihydrobenzo[c][1,2]oxaborol-6-yl)oxy)acetate], the MIC in test [1] (setting [4]) was under 0.25 µg/mL; in test [3] (setting [6]), 0.5 to 2 µg/mL (≈ 0.918 to 3.67 µM). Also, in test [2] (setting [5]), the EC50 was 193 nM.

On to `C=C[C@]1(C)C[C@@H](OC(=O)COc2cc3c(cc2F)COB3O)[C@]2(C)[C@H](C)CC[C@]3(C[C@H](O)C(=O)[C@H]32)[C@@H](C)[C@@H]1O` [Compound 37, (2S,3aR,4R,5R,7S,8S,9R,9aS,12R)-2,8-dihydroxy-4,7,9,12-tetramethyl-3-oxo-7-vinyldecahydro-4,9a-propanocyclopenta[8]annulen-5-yl 2-((5-fluoro-1-hydroxy-1,3-dihydrobenzo[c][1,2]oxaborol-6-yl)oxy)acetate], for which the results for the minimal inhibitory concentration (MIC) in test [1] (setting [4]) and in test [3] (setting [6]) were under 0.25 µg/mL and 0.5 to 2 µg/mL (≈ 0.918 to 3.67 µM), respectively. The EC50 in test [2] (setting [5]) is 52 nM.

Take `C=C[C@]1(C)C[C@@H](OC(=O)COc2ccc3c(c2)B(O)OC3)[C@]2(C)[C@H](C)CC[C@]3(C[C@H](F)C(=O)[C@H]32)[C@@H](C)[C@@H]1O` [Compound 38, (2S,3aR,4R,5R,7S,8S,9R,9aS,12R)-2-fluoro-8-hydroxy-4,7,9,12-tetramethyl-3-oxo-7-vinyldecahydro-4,9a-propanocyclopenta[8]annulen-5-yl 2-((1-hydroxy-1,3-dihydrobenzo[c][1,2]oxaborol-6-yl)oxy)acetate]: the MIC in test [1] (setting [4]) was under 0.25 µg/mL; in test [3] (setting [6]), 0.5 to 2 µg/mL (≈ 0.946 to 3.78 µM). In addition, the EC50 in test [2] (setting [5]) was 9 nM.

With `C=C[C@]1(C)C[C@@H](OC(=O)COc2ccc3c(c2F)B(O)OC3)[C@]2(C)[C@H](C)CC[C@]3(C[C@H](F)C(=O)[C@H]32)[C@@H](C)[C@@H]1O` [Compound 39, (2S,3aR,4R,5R,7S,8S,9R,9aS,12R)-2-fluoro-8-hydroxy-4,7,9,12-tetramethyl-3-oxo-7-vinyldecahydro-4,9a-propanocyclopenta[8]annulen-5-yl 2-((7-fluoro-1-hydroxy-1,3-dihydrobenzo[c][1,2]oxaborol-6-yl)oxy)acetate], the MIC in test [1] (setting [4]) was under 0.25 µg/mL; in test [3] (setting [6]), 0.5 to 2 µg/mL (≈ 0.915 to 3.66 µM). For the same molecule, the EC50 in test [2] (setting [5]) is 84 nM.

As to `C=C[C@]1(C)C[C@@H](OC(=O)COc2cc3c(cc2F)COB3O)[C@]2(C)[C@H](C)CC[C@]3(C[C@H](F)C(=O)[C@H]32)[C@@H](C)[C@@H]1O` [Compound 40, (2S,3aR,4R,5R,7S,8S,9R,9aS,12R)-2-fluoro-8-hydroxy-4,7,9,12-tetramethyl-3-oxo-7-vinyldecahydro-4,9a-propanocyclopenta[8]annulen-5-yl 2-((5-fluoro-1-hydroxy-1,3-dihydrobenzo[c][1,2]oxaborol-6-yl)oxy)acetate], the MIC in test [1] (setting [4]) is under 0.25 µg/mL; in test [3] (setting [6]) it was 0.5 to 2 µg/mL (≈ 0.915 to 3.66 µM). For the same molecule, the EC50 in test [2] (setting [5]) turned out to be 18 nM.

Consider `C=C[C@]1(C)C[C@@H](OC(=O)COc2cc(CNC(=O)OC(C)(C)C)c3c(c2)B(O)OC3)[C@]2(C)[C@H](C)CC[C@]3(C[C@H](O)C(=O)[C@H]32)[C@@H](C)[C@@H]1O` [Compound 41, (2S,3aR,4R,5R,7S,8S,9R,9aS,12R)-2,8-dihydroxy-4,7,9,12-tetramethyl-3-oxo-7-vinyldecahydro-4,9a-propanocyclopenta[8]annulen-5-yl 2-((4-(((tert-butoxycarbonyl)amino)methyl)-1-hydroxy-1,3-dihydrobenzo[c][1,2]oxaborol-6-yl)oxy)acetate], for which the minimal inhibitory concentration (MIC) in test [1] (setting [4]) and in test [3] (setting [6]) was 0.5 to 2 µg/mL (≈ 0.763 to 3.05 µM) throughout. In addition, the EC50 in test [2] (setting [5]) turned out to be 625 nM.

With `C=C[C@]1(C)C[C@@H](OC(=O)CNc2ccc3c(c2)B(O)OC32CCNCC2)[C@]2(C)[C@H](C)CC[C@]3(CCC(=O)[C@H]32)[C@@H](C)[C@@H]1O` [Compound 53, (3aR,4R,5R,7S,8S,9R,9aS,12R)-8-hydroxy-4,7,9,12-tetramethyl-3-oxo-7-vinyldecahydro-4,9a-propanocyclopenta[8]annulen-5-yl (1-hydroxy-1H-spiro[benzo[c][1,2]oxaborole-3,4′-piperidin]-6-yl)glycinate], the minimal inhibitory concentration (MIC) in test [1] (setting [4]) lay in the range of 4 to 32 µg/mL (≈ 6.91 to 55.3 µM); in test [3] (setting [6]) it was 0.5 to 2 µg/mL (≈ 0.864 to 3.46 µM). In test [2] (setting [5]), the EC50 was over 1000 nM.

Consider `C=C[C@]1(C)C[C@@H](OC(=O)NC(=O)c2ccc3c(c2)B(O)OC3)[C@]2(C)[C@H](C)CC[C@]3(CCC(=O)[C@H]32)[C@@H](C)[C@@H]1O` [Compound 58, (3aR,4R,5R,7S,8S,9R,9aS,12R)-8-hydroxy-4,7,9,12-tetramethyl-3-oxo-7-vinyldecahydro-4,9a-propanocyclopenta[8]annulen-5-yl (1-hydroxy-1,3-dihydrobenzo[c][1,2]oxaborole-6-carbonyl)carbamate], for which the MIC in test [1] (setting [4]) was under 0.25 µg/mL; in test [3] (setting [6]) it was 0.5 to 2 µg/mL (≈ 0.955 to 3.82 µM). In addition, the EC50 in test [2] (setting [5]) came out at 56 nM.

For the molecule `C=C[C@]1(C)C[C@@H](OC(=O)COc2ccc3c(c2)B(O)NN=C3)[C@]2(C)[C@H](C)CC[C@]3(C[C@H](O)C(=O)[C@H]32)[C@@H](C)[C@@H]1O` [Compound 70, (2S,3aR,4R,5R,7S,8S,9R,9aS,12R)-2,8-dihydroxy-4,7,9,12-tetramethyl-3-oxo-7-vinyldecahydro-4,9a-propanocyclopenta[8]annulen-5-yl 2-((1-hydroxy-1,2-dihydrobenzo[d][1,2,3]diazaborinin-7-yl)oxy)acetate], the MIC was 0.5 to 2 µg/mL (≈ 0.929 to 3.71 µM) in test [1] (setting [4]) and under 0.25 µg/mL in test [3] (setting [6]). In addition, in test [2] (setting [5]), the EC50 amounted to 12 nM.

For `C=C[C@]1(C)C[C@@H](OC(=O)COc2ccc3c(c2)B(O)N(C(=O)OC(C)(C)C)N=C3)[C@]2(C)[C@H](C)CC[C@]3(C[C@H](F)C(=O)[C@H]32)[C@@H](C)[C@@H]1O` [Compound 73, tert-butyl 7-(2-(((2S,3aR,4R,5R,7S,8S,9R,9aS,12R)-2-fluoro-8-hydroxy-4,7,9,12-tetramethyl-3-oxo-7-vinyldecahydro-4,9a-propanocyclopenta[8]annulen-5-yl)oxy)-2-oxoethoxy)-1-hydroxybenzo[d][1,2,3]diazaborinine-2(1H)-carboxylate], the minimum inhibitory concentration (MIC) in test [1] (setting [4]) and in test [3] (setting [6]) was under 0.25 µg/mL in each case. The EC50 in test [2] (setting [5]) stood at 1 nM.

For the molecule `C=C[C@]1(C)C[C@@H](OC(=O)COc2ccc3c(c2)B(O)NN=C3)[C@]2(C)[C@H](C)CC[C@]3(C[C@H](F)C(=O)[C@H]32)[C@@H](C)[C@@H]1O` [Compound 74, (2S,3aR,4R,5R,7S,8S,9R,9aS,12R)-2-fluoro-8-hydroxy-4,7,9,12-tetramethyl-3-oxo-7-vinyldecahydro-4,9a-propanocyclopenta[8]annulen-5-yl 2-((1-hydroxy-1,2-dihydrobenzo[d][1,2,3]diazaborinin-7-yl)oxy)acetate], the MIC in test [1] (setting [4]) and in test [3] (setting [6]) was under 0.25 µg/mL in each case. In addition, the EC50 in test [2] (setting [5]) was 4 nM.
